Laboratory results reported in ChEMBL document CHEMBL3885861, “Open TG-GATES”.

Species on record: Rattus norvegicus
Assay: Open TG-GATES - Regimen: Single
Assay type: toxicity, organism-based, Sprague-Dawley
Parameters: regimen Single, gender Male, age 6 weeks
Details: in vivo, po, 0 mg/kg, route gavage, dose level Control; for APTT / Bas / Eos / Fbg / Hb / Ht / Lym / MCH / MCHC / MCV / Mono / Neu / PT / Plat / RBC / Ret / WBC: tissue Blood; for KIDNEY_L / KIDNEY_R / KIDNEY_TOTAL: tissue Kidney; for LIVER: tissue Liver; for ALP / ALT / AST / BUN / CRE / Ca / Cl / DBIL / GLC / IP / K / LDH / Na / PL / RALB / TBIL / TC / TG / TP / gamma-GTP: tissue Plasma

COC(=O)C1=C(C)NC(C)=C(C(=O)OC)C1c1ccccc1[N+](=O)[O-] [NIFEDIPINE]
TERMINAL_BW (3 h): 197.5 g
APTT (3 h): 16.4 s
Bas (3 h): 0.2%
Eos (3 h): 0.8%
Fbg (3 h): 271 mg/dL
Hb (3 h): 13.3 g/dL
Ht (3 h): 41.5%
Lym (3 h): 74.2%
MCH (3 h): 20.8 pg
MCHC (3 h): 32.1%
MCV (3 h): 64.8 fL
Mono (3 h): 2.6%
Neu (3 h): 21.2%
PT (3 h): 14.8 s
Plat (3 h): 120 x10_4/uL
RBC (3 h): 641.4 x10_4/ul
Ret (3 h): 8.7%
WBC (3 h): 85.8 x10_2/uL
KIDNEY_L (3 h): 0.9 g
KIDNEY_R (3 h): 0.9 g
KIDNEY_TOTAL (3 h): 1.8 g
LIVER (3 h): 8.4 g
ALP (3 h): 1457.4 IU/L
ALT (3 h): 49.6 IU/L
AST (3 h): 81.8 IU/L
BUN (3 h): 9.4 mg/dL
CRE (3 h): 0.2 mg/dL
Ca (3 h): 10.6 mg/dL
Cl (3 h): 105.6 meq/L
DBIL (3 h): 0.012 mg/dL
GLC (3 h): 178.4 mg/dL
IP (3 h): 9.6 mg/dL
K (3 h): 4.4 meq/L
LDH (3 h): 90.8 IU/L
Na (3 h): 142 meq/L
PL (3 h): 128.2 mg/dL
RALB (3 h): 2.5 g/dL
TBIL (3 h): 0.044 mg/dL
TC (3 h): 70.2 mg/dL
TG (3 h): 42.4 mg/dL
TP (3 h): 5.2 g/dL
gamma-GTP (3 h): 1 IU/L
TERMINAL_BW (6 h): 197 g
APTT (6 h): 16.6 s
Bas (6 h): 0.2%
Eos (6 h): 1%
Fbg (6 h): 298 mg/dL
Hb (6 h): 13.5 g/dL
Ht (6 h): 42.2%
Lym (6 h): 71.2%
MCH (6 h): 21.1 pg
MCHC (6 h): 32%
MCV (6 h): 65.8 fL
Mono (6 h): 3.2%
Neu (6 h): 23.6%
PT (6 h): 15 s
Plat (6 h): 127.7 x10_4/uL
RBC (6 h): 641.2 x10_4/ul
Ret (6 h): 8.8%
WBC (6 h): 94.9 x10_2/uL
KIDNEY_L (6 h): 0.9 g
KIDNEY_R (6 h): 0.9 g
KIDNEY_TOTAL (6 h): 1.7 g
LIVER (6 h): 8.2 g
ALP (6 h): 1485.2 IU/L
ALT (6 h): 43.4 IU/L
AST (6 h): 71 IU/L
BUN (6 h): 9 mg/dL
CRE (6 h): 0.2 mg/dL
Cl (6 h): 107.4 meq/L
DBIL (6 h): 0.008 mg/dL
GLC (6 h): 177.8 mg/dL
IP (6 h): 9.7 mg/dL
K (6 h): 4.2 meq/L
LDH (6 h): 70.4 IU/L
Na (6 h): 144 meq/L
PL (6 h): 139.8 mg/dL
RALB (6 h): 2.5 g/dL
TBIL (6 h): 0.036 mg/dL
TC (6 h): 78.8 mg/dL
TG (6 h): 56 mg/dL
TP (6 h): 5.4 g/dL
gamma-GTP (6 h): 1 IU/L
TERMINAL_BW (9 h): 193.8 g
APTT (9 h): 16 s
Bas (9 h): 0%
Eos (9 h): 1%
Fbg (9 h): 297 mg/dL
Hb (9 h): 13.1 g/dL
Ht (9 h): 40.6%
Lym (9 h): 80.6%
MCH (9 h): 21 pg
MCHC (9 h): 32.4%
MCV (9 h): 65 fL
Mono (9 h): 2%
Neu (9 h): 15.8%
PT (9 h): 14.7 s
Plat (9 h): 120.3 x10_4/uL
RBC (9 h): 626.4 x10_4/ul
Ret (9 h): 9%
WBC (9 h): 65.5 x10_2/uL
KIDNEY_L (9 h): 0.9 g
KIDNEY_R (9 h): 0.9 g
KIDNEY_TOTAL (9 h): 1.7 g
LIVER (9 h): 7.4 g
ALP (9 h): 1438.2 IU/L
ALT (9 h): 35.6 IU/L
AST (9 h): 67 IU/L
BUN (9 h): 8.2 mg/dL
CRE (9 h): 0.2 mg/dL
Ca (9 h): 10.4 mg/dL
Cl (9 h): 106.6 meq/L
DBIL (9 h): 0.002 mg/dL
GLC (9 h): 162.8 mg/dL
IP (9 h): 10.2 mg/dL
K (9 h): 3.7 meq/L
LDH (9 h): 61.4 IU/L
Na (9 h): 143.4 meq/L
PL (9 h): 130.6 mg/dL
RALB (9 h): 2.5 g/dL
TBIL (9 h): 0.04 mg/dL
TC (9 h): 79 mg/dL
TG (9 h): 18.4 mg/dL
TP (9 h): 5.3 g/dL
gamma-GTP (9 h): 1.2 IU/L
TERMINAL_BW (24 h): 213.5 g
APTT (24 h): 16.3 s
Bas (24 h): 0%
Eos (24 h): 1%
Fbg (24 h): 285.8 mg/dL
Hb (24 h): 13.1 g/dL
Ht (24 h): 40.6%
Lym (24 h): 73.2%
MCH (24 h): 21.2 pg
MCHC (24 h): 32.3%
MCV (24 h): 65.5 fL
Mono (24 h): 3%
Neu (24 h): 21.8%
PT (24 h): 14.2 s
Plat (24 h): 118.4 x10_4/uL
RBC (24 h): 620 x10_4/ul
Ret (24 h): 8.7%
WBC (24 h): 87.2 x10_2/uL
KIDNEY_L (24 h): 0.9 g
KIDNEY_R (24 h): 0.9 g
KIDNEY_TOTAL (24 h): 1.8 g
LIVER (24 h): 9.6 g
ALP (24 h): 1663.2 IU/L
ALT (24 h): 44 IU/L
AST (24 h): 75 IU/L
BUN (24 h): 15.2 mg/dL
CRE (24 h): 0.2 mg/dL
Ca (24 h): 11 mg/dL
Cl (24 h): 106.6 meq/L
DBIL (24 h): 0.018 mg/dL
GLC (24 h): 187 mg/dL
IP (24 h): 8.3 mg/dL
K (24 h): 4.3 meq/L
LDH (24 h): 67.4 IU/L
Na (24 h): 145.6 meq/L
PL (24 h): 156.8 mg/dL
RALB (24 h): 2.7 g/dL
TBIL (24 h): 0.03 mg/dL
TC (24 h): 87.8 mg/dL
TG (24 h): 62.6 mg/dL
TP (24 h): 5.7 g/dL
